In ChEMBL document CHEMBL1909046, “DrugMatrix in vitro pharmacology data”:
pIC50, pKi: −log10 of the molar value.

Experiments:
[1] = target: T1, Receptor-type tyrosine-protein phosphatase C (Homo sapiens, UniProt P08575); set-up: species or system Escherichia coli;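 also: inhibition of CD45 enzyme activity measured using DiFMUP as substrate; in other assays of this panel Not Active means under 50% inhibition at 10 µM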
T1 sequence (P08575 whole entry): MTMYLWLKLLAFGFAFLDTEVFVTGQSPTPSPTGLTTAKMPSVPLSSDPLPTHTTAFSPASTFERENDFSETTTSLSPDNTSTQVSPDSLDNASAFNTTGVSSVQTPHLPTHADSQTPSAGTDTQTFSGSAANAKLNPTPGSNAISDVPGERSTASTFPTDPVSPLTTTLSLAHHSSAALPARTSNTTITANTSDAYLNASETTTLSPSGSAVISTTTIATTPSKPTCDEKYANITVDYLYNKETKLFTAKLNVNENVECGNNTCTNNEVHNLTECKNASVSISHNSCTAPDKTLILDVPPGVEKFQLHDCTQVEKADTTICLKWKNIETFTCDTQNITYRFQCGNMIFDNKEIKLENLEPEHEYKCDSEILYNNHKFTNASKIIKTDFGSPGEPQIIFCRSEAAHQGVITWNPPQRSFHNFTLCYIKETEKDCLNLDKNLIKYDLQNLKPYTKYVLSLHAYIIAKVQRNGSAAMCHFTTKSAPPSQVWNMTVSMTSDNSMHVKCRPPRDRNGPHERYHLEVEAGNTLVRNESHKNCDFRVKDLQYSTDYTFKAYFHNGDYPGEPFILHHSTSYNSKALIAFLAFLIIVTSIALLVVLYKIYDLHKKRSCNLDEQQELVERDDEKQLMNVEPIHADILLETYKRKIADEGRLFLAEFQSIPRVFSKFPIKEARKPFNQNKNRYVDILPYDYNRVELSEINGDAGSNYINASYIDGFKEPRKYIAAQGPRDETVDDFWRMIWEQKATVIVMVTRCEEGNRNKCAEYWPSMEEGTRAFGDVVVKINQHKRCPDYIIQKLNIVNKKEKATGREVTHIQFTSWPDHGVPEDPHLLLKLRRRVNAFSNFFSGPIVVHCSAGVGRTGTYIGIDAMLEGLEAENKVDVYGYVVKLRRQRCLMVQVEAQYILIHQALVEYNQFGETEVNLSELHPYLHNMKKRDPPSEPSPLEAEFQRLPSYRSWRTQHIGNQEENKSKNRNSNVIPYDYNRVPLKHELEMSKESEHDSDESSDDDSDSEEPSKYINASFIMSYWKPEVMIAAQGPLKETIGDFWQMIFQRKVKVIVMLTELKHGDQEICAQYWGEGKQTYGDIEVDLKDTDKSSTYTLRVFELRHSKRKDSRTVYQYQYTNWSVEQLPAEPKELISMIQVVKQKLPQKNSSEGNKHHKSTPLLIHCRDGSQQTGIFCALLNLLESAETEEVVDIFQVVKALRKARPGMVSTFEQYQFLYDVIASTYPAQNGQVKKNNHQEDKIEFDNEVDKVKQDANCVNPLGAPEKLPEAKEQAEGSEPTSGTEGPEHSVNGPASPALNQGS

Nitric oxide synthase 1 = Nitric oxide synthase 1 (Rattus norvegicus, UniProt P29476); format: tissue-based, Cerebellum; also: in other assays of this panel Not Active means under 50% inhibition at 10 µM
Nitric oxide synthase 1, sequence (P29476 whole entry): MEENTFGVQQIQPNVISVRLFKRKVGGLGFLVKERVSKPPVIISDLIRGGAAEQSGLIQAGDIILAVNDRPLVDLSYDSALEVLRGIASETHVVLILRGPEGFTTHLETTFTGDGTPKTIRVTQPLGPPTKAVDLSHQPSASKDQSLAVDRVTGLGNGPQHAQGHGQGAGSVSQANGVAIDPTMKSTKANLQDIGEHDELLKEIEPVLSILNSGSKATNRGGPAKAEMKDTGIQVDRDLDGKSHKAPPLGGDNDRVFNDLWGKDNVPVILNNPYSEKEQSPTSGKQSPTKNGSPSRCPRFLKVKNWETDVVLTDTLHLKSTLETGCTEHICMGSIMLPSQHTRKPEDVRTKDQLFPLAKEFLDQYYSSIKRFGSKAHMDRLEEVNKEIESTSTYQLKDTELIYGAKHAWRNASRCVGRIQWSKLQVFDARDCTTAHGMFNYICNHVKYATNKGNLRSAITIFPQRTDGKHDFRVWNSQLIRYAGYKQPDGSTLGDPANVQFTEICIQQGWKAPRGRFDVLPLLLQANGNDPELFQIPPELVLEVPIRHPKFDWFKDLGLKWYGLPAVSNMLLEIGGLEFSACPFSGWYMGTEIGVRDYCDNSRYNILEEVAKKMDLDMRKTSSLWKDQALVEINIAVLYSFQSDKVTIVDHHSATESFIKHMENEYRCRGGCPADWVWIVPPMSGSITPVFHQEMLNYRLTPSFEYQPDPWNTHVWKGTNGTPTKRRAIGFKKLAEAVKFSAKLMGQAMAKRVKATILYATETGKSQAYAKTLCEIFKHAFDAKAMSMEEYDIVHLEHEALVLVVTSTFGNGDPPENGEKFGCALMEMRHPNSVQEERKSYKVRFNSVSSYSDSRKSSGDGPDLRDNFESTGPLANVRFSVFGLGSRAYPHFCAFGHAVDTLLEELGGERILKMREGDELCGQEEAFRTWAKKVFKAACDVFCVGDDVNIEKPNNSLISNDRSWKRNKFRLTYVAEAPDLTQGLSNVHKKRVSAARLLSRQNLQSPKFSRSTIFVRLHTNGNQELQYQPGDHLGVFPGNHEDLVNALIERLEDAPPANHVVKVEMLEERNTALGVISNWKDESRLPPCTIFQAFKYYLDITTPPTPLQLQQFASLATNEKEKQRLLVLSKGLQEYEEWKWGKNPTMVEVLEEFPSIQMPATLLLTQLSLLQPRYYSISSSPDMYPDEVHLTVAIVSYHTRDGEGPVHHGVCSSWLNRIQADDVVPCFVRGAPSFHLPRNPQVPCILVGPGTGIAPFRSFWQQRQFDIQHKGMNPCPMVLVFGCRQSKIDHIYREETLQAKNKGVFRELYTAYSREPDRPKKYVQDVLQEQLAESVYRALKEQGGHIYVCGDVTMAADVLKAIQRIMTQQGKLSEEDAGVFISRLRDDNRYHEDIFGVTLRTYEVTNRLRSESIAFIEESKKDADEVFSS

[2] = target: T2, Alpha-1D adrenergic receptor (Homo sapiens, UniProt P25100); format: cell membranes, HEK293, Membrane; conditions: hek293; also: in other assays of this panel Not Active means under 50% inhibition at 10 µM
T2 sequence (P25100 whole entry): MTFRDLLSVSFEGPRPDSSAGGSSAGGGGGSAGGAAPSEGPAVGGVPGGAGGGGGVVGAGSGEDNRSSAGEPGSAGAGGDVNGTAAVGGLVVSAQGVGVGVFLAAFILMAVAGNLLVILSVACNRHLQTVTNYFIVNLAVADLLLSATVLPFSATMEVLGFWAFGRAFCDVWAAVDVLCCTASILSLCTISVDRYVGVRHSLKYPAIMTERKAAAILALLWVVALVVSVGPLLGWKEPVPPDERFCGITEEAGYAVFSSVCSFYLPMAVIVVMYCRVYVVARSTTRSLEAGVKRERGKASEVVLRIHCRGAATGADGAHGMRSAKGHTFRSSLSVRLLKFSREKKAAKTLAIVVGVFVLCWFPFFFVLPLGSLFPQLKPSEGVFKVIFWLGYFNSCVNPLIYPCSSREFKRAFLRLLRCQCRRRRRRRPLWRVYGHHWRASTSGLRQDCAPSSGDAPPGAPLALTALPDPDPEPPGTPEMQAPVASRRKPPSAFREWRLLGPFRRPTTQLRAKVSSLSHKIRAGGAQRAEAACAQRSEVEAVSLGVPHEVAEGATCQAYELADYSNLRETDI

[3] = target: T3, Muscarinic acetylcholine receptor M5 (Homo sapiens, UniProt P08912); format: cell membranes, CHO-K1, Membrane; conditions: cho-k1; also: in other assays of this panel Not Active means under 50% inhibition at 10 µM
T3 sequence (P08912 whole entry): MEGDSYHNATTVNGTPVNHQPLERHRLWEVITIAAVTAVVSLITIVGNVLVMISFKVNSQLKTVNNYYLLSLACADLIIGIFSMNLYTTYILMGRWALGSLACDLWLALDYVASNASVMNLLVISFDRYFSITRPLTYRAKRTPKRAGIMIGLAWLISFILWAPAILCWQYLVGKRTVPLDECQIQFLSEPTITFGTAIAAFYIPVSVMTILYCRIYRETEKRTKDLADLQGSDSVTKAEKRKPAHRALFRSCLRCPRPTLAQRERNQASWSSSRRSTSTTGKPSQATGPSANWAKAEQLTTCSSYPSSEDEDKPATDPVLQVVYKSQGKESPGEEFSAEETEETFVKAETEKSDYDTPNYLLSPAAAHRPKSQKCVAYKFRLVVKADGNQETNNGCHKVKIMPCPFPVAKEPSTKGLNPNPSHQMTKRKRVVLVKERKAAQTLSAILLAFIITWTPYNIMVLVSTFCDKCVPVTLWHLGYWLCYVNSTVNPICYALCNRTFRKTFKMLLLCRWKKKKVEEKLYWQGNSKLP

D(4) dopamine receptor = target: T4, D(4) dopamine receptor (Homo sapiens, UniProt P21917); assay: DRUGMATRIX: Dopamine D4.2 radioligand binding (ligand: [3H] Spiperone); format: cell membranes, CHO-K1, Membrane; conditions: cho-k1; Not Active = under 50% inhibition at 10 µM
T4 sequence (P21917 whole entry): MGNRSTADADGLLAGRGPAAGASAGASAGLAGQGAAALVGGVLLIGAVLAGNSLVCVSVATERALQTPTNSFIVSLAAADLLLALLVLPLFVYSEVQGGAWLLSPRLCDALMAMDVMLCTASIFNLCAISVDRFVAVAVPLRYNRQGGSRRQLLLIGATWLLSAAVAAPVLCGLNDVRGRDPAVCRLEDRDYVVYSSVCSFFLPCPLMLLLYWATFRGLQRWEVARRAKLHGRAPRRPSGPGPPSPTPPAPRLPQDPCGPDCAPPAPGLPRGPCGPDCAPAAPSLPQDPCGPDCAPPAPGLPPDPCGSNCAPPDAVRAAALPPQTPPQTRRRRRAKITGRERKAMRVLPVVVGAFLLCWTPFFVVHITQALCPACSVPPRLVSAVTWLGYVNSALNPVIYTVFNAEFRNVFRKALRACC

| Compound | IC50 [1] | Ki [1] | IC50 (Nitric oxide synthase 1) | Ki (Nitric oxide synthase 1) | IC50 [2] | Ki [2] | pIC50 ([3]; read-out: IC50) | pKi ([3]; read-out: Ki) | IC50 (D(4) dopamine receptor) | Ki (D(4) dopamine receptor) | IC50 [3] | Ki [3] |
| --- | --- | --- | --- | --- | --- | --- | --- | --- | --- | --- | --- | --- |
| TRANSPLATIN | Not Active | Not Active | Not Active | Not Active | Not Active | Not Active | 5.23 | 5.37 | Not Active | Not Active | – | – |
| O=C(O)COc1ccc(C(=O)c2cccs2)c(Cl)c1Cl | Not Active | – | Not Active | – | Not Active | – | – | – | Not Active | – | Not Active | – |
| ZIRCONIUM(IV) CHLORIDE | Not Active | Not Active | Not Active | Not Active | Not Active | Not Active | – | – | Not Active | Not Active | Not Active | Not Active |
